This is an account of results in US8889878B2, “Haloalky-substituted amides as insecticides and acaricides” (Bayer CropScience AG, priority 2009, dated 2014).

Data set [1] relates to red spider mite (Tetranychus urticae). The data set can be described thus: Tetranychus test, OP-resistant (TETRUR spray treatment), Example 8. The data set is classed as in vivo. The settings on record: application rate 20 g/ha, common bean leaf discs sprayed, after 6 days. Here is the method:
Tetranychus Test, OP-resistant (TETRUR Spray Treatment)
(§1) • Solvent: 78.0 parts by weight of acetone • 1.5 parts by weight of dimethylformamide • Emulsifier: 0.5 part by weight of alkylaryl polyglycol ether
To prepare an active ingredient formulation, 1 part by weight of active ingredient is mixed with the stated amounts of solvent and emulsifier, and the concentrate is diluted with emulsifier-containing water to the desired concentration.
Leaf discs from the common bean (Phaseolus vulgaris) infested by all stages of the red spider mite (Tetranychus urticae) are sprayed with an active ingredient formulation of the desired concentration.
After 6 days, the efficacy in % is determined. 100% means that all spider mites were killed; 0% means that no spider mites were killed.

For data set [2], the system named is mustard beetle (Phaedon cochleariae). Briefly: Phaedon test (PHAECO spray treatment), Example 7. In kind it is in vivo. The following applies: application rate 20 g/ha, china cabbage leaf discs sprayed, after 7 days. The essentials:
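Spray formulation (acetone/DMF with alkylaryl polyglycol ether, diluted in emulsifier-containing water) applied to Chinese cabbage leaf discs, which were dried and then stocked with mustard beetle larvae. Efficacy scored at 7 days as % larvae killed (100% all, 0% none).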

The subject of data set [3] is Boophilus microplus. Briefly: Boophilus microplus test (BOOPMI injection), Example 11. The settings on record: application rate 20 μg/animal, injected into abdomen, after 7 days; for pest or weed control at 0.02 mg: Rhipicephalus microplus, 168 h, read-out: efficacy in % (fertile eggs laid). In kind it is in vivo. The essentials: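 Efficacy rated from fertile egg laying: 100% means none of the ticks laid fertile eggs, read after 7 days. Compound, dissolved and diluted in DMSO, was delivered by abdominal injection, and ticks were kept in dishes under climate control.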

The subject of data set [4] is green peach aphid (Myzus persicae). The data set can be described thus: Myzus test (MYZUPE spray treatment), Example 17. The following applies: china cabbage leaf discs sprayed, after 6 days. The data set is classed as in vivo. The essentials: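 Efficacy recorded at 6 days as % kill, where 100% means every aphid dead and 0% none. Spray applied to Brassica pekinensis leaf discs bearing mixed-stage aphids; active ingredient dissolved in acetone with dimethylformamide and emulsifier, then diluted with emulsifier-containing water.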

Data set [5] in a line: logP by HPLC on reverse-phase column (EEC Directive 79/831 Annex V.A8). The following applies: for chromatographic logP: reverse-phase C18 HPLC column. In kind it is physicochemical. The protocol:
The logP values reported in the above Tables and Preparation Examples were determined according to EEC Directive 79/831 Annex V.A8 by HPLC (High Performance Liquid Chromatography) on a reverse-phase column (C18). Temperature 43° C.

The test system of data set [6] is Musca domestica adults. The data set can be described thus: Musca domestica test (MUSCDO), Example 14. The data set is classed as in vivo. The settings on record: application rate 100 ppm, treated sponge, after 2 days. The protocol: Musca domestica Test (MUSCDO) • Solvent: dimethyl sulphoxide To prepare an appropriate active ingredient formulation, 10 mg of active ingredient are mixed with 0.5 ml of dimethyl sulphoxide, and the concentrate is diluted with water to the desired concentration. Vessels containing a sponge which has been treated with the active ingredient formulation of the desired concentration are populated with Musca domestica adults. After 2 days, the kill rate in % is determined. 100% means that all flies were killed; 0% means that no flies were killed.

Data set [7] concerns armyworm (Spodoptera frugiperda). The data set can be described thus: Spodoptera frugiperda test (SPODFR spray treatment), Example 15. The data set is classed as in vivo. The settings on record: maize leaf discs sprayed, after 7 days; for pest or weed control at 500 g/ha: Spodoptera frugiperda, foliar, 168 h, application rate 500 g/ha, read-out: efficacy in %; for efficacy in %: application rate 100 g/ha. The essentials: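 Caterpillars placed on dried, sprayed Zea mays leaf discs; formulation of acetone, dimethylformamide and emulsifier diluted with emulsifier-containing water to test concentration. Percent kill scored on day 7.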

For data set [8], the system named is Boophilus microplus. The data set can be described thus: Boophilus microplus test (BOOPMI injection), Example 1. The data set is classed as in vivo. The following applies: application rate 20 μg/animal, injected into abdomen, after 7 days. Here is the method: Boophilus microplus Test (BOOPMI Injection) • Solvent: dimethyl sulphoxide To prepare an active ingredient formulation, 10 mg of active ingredient are mixed with 0.5 ml of solvent and the concentrate is diluted with water to the desired concentration. The active ingredient solution was injected into the abdomen (Boophilus microplus), and the animals were transferred to dishes and stored in a climate-controlled room. The efficacy was assessed by the number of fertile eggs laid. After 7 days, the efficacy in % is determined. 100% means that no tick laid fertile eggs.

In data set [9] the test system is mustard beetle (Phaedon cochleariae). The data set can be described thus: Phaedon test (PHAECO spray treatment), Example 16. The data set is classed as in vivo. The following applies: Phaedon cochleariae, foliar, china cabbage leaf discs sprayed, after the desired time, read-out: efficacy in %; for pest or weed control at 500 g/ha: application rate 500 g/ha. The protocol: Phaedon Test (PHAECO Spray Treatment)
as §1
To prepare an appropriate active ingredient formulation, 1 part by weight of active ingredient is mixed with the stated amounts of solvent and emulsifier, and the concentrate is diluted with emulsifier-containing water to the desired concentration. […]
After the desired time, the efficacy in % is determined. 100% means that all beetle larvae were killed; 0% means that no beetle larvae were killed.

Setting [10] is: pH 2.7, HPLC, C18 reverse phase, 43° C., acidic range pH 2.7, calibration with alkan-2-ones.

As usually defined, the chromatographic logP is a lipophilicity value derived from retention on a column.

`O=C(/C=C/c1ccc(C(=O)NCC(F)F)c(C(F)(F)F)c1)NC(c1cccc(C(F)(F)F)c1)C(F)(F)F` (centres unmarked) [Ia-57]: the efficacy in % in data set [1] amounted to 90%; in data set [2], 100%; in data set [4] (application rate 500 g/ha), 100%. In [3], the “efficacy in % (fertile eggs laid)” value amounted to 100%. In addition, the logP entry in data set [5] (HPLC-MS) was “HPLC-MS: logP = 3.48; mass”. Moreover, the “kill rate in % (efficacy)” value in [6] amounted to 100%.
With `N#Cc1ccc(/C=C/C(=O)NC(c2cccc(C(F)(F)F)c2)C(F)(F)F)cc1C(F)(F)F` (centres unmarked) [Ia-46, (2E)-3-[4-cyano-3-(trifluoromethyl)phenyl]-N-{2,2,2-trifluoro-1-[3-(trifluoromethyl)phenyl]ethyl}acrylamide], the pest or weed control at 0.02 mg in [3] was determined as 100%. The chromatographic logP in data set [5] (HPLC-MS) is 4.06. Besides, the pest or weed control at 500 g/ha in data set [7] and in data set [9] was 100% in each case. For the same molecule, the “efficacy in % (fertile eggs laid)” value in [8] is recorded as 100%.
For the molecule `CC(NC(=O)c1ccc(/C=C/C(=O)NC(c2cccc(C(F)(F)F)c2)C(F)(F)F)cc1Cl)C(F)(F)F` (centres unmarked) [Ia-158], in [3], the “efficacy in % (fertile eggs laid)” value is recorded as 100%. For the same molecule, the efficacy in % in [4] (application rate 100 g/ha) was 80%; in [7], 100%. Further, the logP result in data set [5] (HPLC-MS) is “HPLC-MS: logP = 3.78; mass”. For the same molecule, the “kill rate in % (efficacy)” value in [6] is 100%.
`N#CC1CC1NC(=O)c1ccc(/C=C/C(=O)NC(c2cccc(C(F)(F)F)c2)C(F)(F)F)cc1C(F)(F)F` (centres unmarked) [Ia-140]: the “efficacy in % (fertile eggs laid)” value in data set [3] is on record as 100%. In addition, the efficacy in % is 90% in [4] (application rate 100 g/ha) and 100% in data set [7]. Besides, the logP entry in [5] (HPLC-MS) is given as “HPLC-MS: logP = 3.37; mass”. Moreover, the “kill rate in % (efficacy)” value in data set [6] is 100%.
For the molecule `C#CCNC(=O)c1ccc(/C=C/C(=O)NC(c2cccc(C(F)(F)F)c2)C(F)(F)F)cc1Cl` (centres unmarked) [Ia-151], the “efficacy in % (fertile eggs laid)” value in data set [3] came out at 100%. For the same molecule, the logP result in data set [5] (HPLC-MS) is “HPLC-MS: logP = 3.2; mass”. Further, the “kill rate in % (efficacy)” value in [6] is given as 80%.
With `Cn1c(C(=O)NC(c2cccc(C(F)(F)F)c2)C(F)(F)F)cc2cc(C(=O)NC3CC3)c(Cl)cc21` (racemic) [Ic-25], in [3], the “efficacy in % (fertile eggs laid)” value was 100%. In data set [6], the “kill rate in % (efficacy)” value was determined as 100%.
Turning to `CC(C)ONC(=O)c1ccc(/C=C/C(=O)NC(c2cccc(C(F)(F)F)c2)C(F)(F)F)cc1C(F)(F)F` (centres unmarked) [Ia-149], in [3], the “efficacy in % (fertile eggs laid)” value came out at 100%. Moreover, the logP result in data set [5] (HPLC-MS) is recorded as “HPLC-MS: logP = 3.48; mass”. In addition, the efficacy in % in [7] was found to be 100%. For the same molecule, the “kill rate in % (efficacy)” value in data set [6] was 100%.
In turn, `O=C(/C=C/c1ccc(C(=O)NC2CCCC2C(F)(F)F)c(C(F)(F)F)c1)NC(c1cccc(C(F)(F)F)c1)C(F)(F)F` (centres unmarked) [Ia-77] gave an efficacy in % in [1] of 80%. Further, the “efficacy in % (fertile eggs laid)” value in [3] and in data set [8] was 100% in each case. Besides, the logP entry in [5] (HPLC-MS) was “HPLC-MS: logP = 3.93; mass”.
Consider `N#Cc1ccc(/C=C/C(=O)NC(c2cccc(C(F)(F)F)c2)C(F)(F)F)cc1Cl` (centres unmarked) [Ia-44], for which the “efficacy in % (fertile eggs laid)” value in data set [3] and in data set [8] was 100% throughout. The logP entry in data set [5] (HPLC-MS) is given as “HPLC-MS: logP = 3.91; mass”.
As to `O=C(/C=C/c1ccc(C(=O)Nc2ccc(Cl)cn2)c(C(F)(F)F)c1)NC(c1cccc(C(F)(F)F)c1)C(F)(F)F` (centres unmarked) [Ia-122], in data set [3], the “efficacy in % (fertile eggs laid)” value came out at 100%. For the same molecule, the logP result in data set [5] (HPLC-MS) is “HPLC-MS: logP = 4.3; mass”. For the same molecule, the “kill rate in % (efficacy)” value in data set [6] is on record as 90%.
Take `O=C(/C=C/c1ccc(C(=O)NCC2CC2)c(Cl)c1)NC(c1cccc(C(F)(F)F)c1)C(F)(F)F` (centres unmarked) [Ia-163]: the “efficacy in % (fertile eggs laid)” value in data set [3] was 100%. Also, the efficacy in % in [4] (application rate 100 g/ha) was 100%. The logP result in data set [5] (HPLC-MS) is on record as “HPLC-MS: logP = 3.54; mass”. Further, the “kill rate in % (efficacy)” value in data set [6] is reported as 100%.
Turning to `O=C(/C=C/c1ccc(-c2noc(C3CC3)n2)c(C(F)(F)F)c1)NC(c1cccc(C(F)(F)F)c1)C(F)(F)F` (centres unmarked) [Ia-123, (2E)-3-[4-(5-Cyclopropyl-1,2,4-oxadiazol-3-yl)-3-(trifluoromethyl)phenyl]-N-{2,2,2-trifluoro-1-[3-(trifluoromethyl)phenyl]ethyl}acrylamide], the pest or weed control at 0.02 mg in data set [3] was 100%. This molecule also displayed a chromatographic logP in [5] (setting [10]) of 4.53. Besides, the pest or weed control at 500 g/ha in [7] and in [9] was 100% each time.
On to `CC(CC1CC1)NC(=O)c1ccc(/C=C/C(=O)NC(c2cccc(C(F)(F)F)c2)C(F)(F)F)cc1C(F)(F)F` (centres unmarked) [Ia-148], for which the “efficacy in % (fertile eggs laid)” value in data set [3] is 100%. Moreover, in data set [5] (HPLC-MS), the logP result is reported as “HPLC-MS: logP = 4.24; mass”. Also, the efficacy in % in [7] was determined as 100%. Also, in data set [6], the “kill rate in % (efficacy)” value is 90%.
In the case of `CC(C#N)NC(=O)c1ccc(/C=C/C(=O)NC(c2cccc(C(F)(F)F)c2)C(F)(F)F)cc1C(F)(F)F` (centres unmarked) [Ia-141], in data set [3], the “efficacy in % (fertile eggs laid)” value was determined as 100%. Moreover, the efficacy in % in [4] (application rate 100 g/ha) and in data set [7] was 100% in each case. In addition, the logP entry in data set [5] (HPLC-MS) is recorded as “HPLC-MS: logP = 3.39; mass”. In [6], the “kill rate in % (efficacy)” value worked out at 100%.
For the molecule `O=C(/C=C/c1ccc(C(=O)NCC(F)(F)F)c(Cl)c1)NC(c1cccc(C(F)(F)F)c1)C(F)(F)F` (centres unmarked) [Ia-19], the “efficacy in % (fertile eggs laid)” value in [3] is 100%. For the same molecule, the logP result in [5] (HPLC-MS) is “HPLC-MS: logP = 3.56; mass”. Moreover, the “kill rate in % (efficacy)” value in data set [6] is recorded as 100%.
For the molecule `N#Cc1ccc(/C=C/C(=O)NC(c2cccc(C(F)(F)F)c2)C(F)(F)F)cc1` (centres unmarked) [Ia-8, (2E)-3-(4-Cyanophenyl)-N-{2,2,2-trifluoro-1-[3-(trifluoromethyl)phenyl]ethyl}acrylamide], the pest or weed control at 0.02 mg in data set [3] amounted to 100%. The same molecule came in with a chromatographic logP in [5] (setting [10]) of 3.54. The pest or weed control at 500 g/ha in data set [7] and in data set [9] was 100% in each case. In [8], the “efficacy in % (fertile eggs laid)” value stood at 100%.
`O=C(/C=C/c1ccc(C(=O)NC2C[S+]([O-])C2)c(Cl)c1)NC(c1cccc(C(F)(F)F)c1)C(F)(F)F` (centres unmarked) [Ia-167, 2-chloro-N-(1-oxidothietan-3-yl)-4-[(1E)-3-oxo-3-({2,2,2-trifluoro-1-[3-(trifluoromethyl)phenyl]ethyl}amino)prop-1-en-1-yl]benzamide] showed an efficacy in % in [4] (application rate 100 g/ha) of 80%. The chromatographic logP in [5] (setting [10]) was found to be 2.63. For the same molecule, the pest or weed control at 100 g/ha in data set [9] (application rate 100 g/ha) came out at 100%.
